The text below walks through data of PMC6776155 (Breeding Science, 2019).

The test system of this assay is TrGDH (His6-TF-TrGDH). In words: NADPH oxidation at […] nm, Lineweaver-Burk. The conditions noted are these: amination; 2-OG 1-10 mM, 100 μM NADPH, NH4Cl co-substrate, Tris pH 8.0, 25 °C. The assay is classed as biochemical, Trichurus sp.

For the compound `O=C(O)CCC(=O)C(=O)O` [2-oxoglutarate], the Km – broadly, the concentration of substrate that gives half-maximal velocity – came out at 1570 ± 190 µM.
